Experimental data taken from US20100256357A1, “HETEROCYCLES USEFUL AS INHIBITORS OF CARBONIC ANHYDRASE” (Agouron Pharmaceuticals, Inc., priority 2006, published 2010).
Read-outs that look alike come from different tables or passages of the source.

How the values were obtained:
human CA-IX = target: T1, human CA-IX (Homo sapiens, UniProt Q16790); assay: Carbonic Anhydrase-IX (CA-IX) Fluorescence Polarization Assay-IC50 Determination; format: binding; conditions: read-out: CAIX IC50
T1 construct: purchased R&D Systems Inc. 2188-CA-010
Procedure: Carbonic Anhydrase-IX (CA-IX) Fluorescence Polarization Assay-IC50 Determination
Compounds were diluted in DMSO at the concentration of 1 mM, then 50 μM and transferred to a 96-well plate for further dilutions (1:3 dilution, 11 points) in duplicate. Final compound highest concentration in CA-IX FP assay is 1 μM. Assays were conducted in a final volume of 100 μL in 50 mM Tris/HCl (pH 7.6), 100 mM Na2SO4 and 0.005% Tween-20 in a 96-well black assay. plate. […] was used as the tracer. Binding inhibition was determined by pipetting 8 μL of human CA-IX (8 nM, R&D Systems Inc. Cat#2188-CA-010) into assay plate contained 2 μL of compound and 2 μL of tracer (2 nM) in 88 μL of assay buffer. The assay plate was incubated at room temperature for 30 minutes and read in the fluorescence polarization reader (Molecular Devices, Analyst) at 524/45 nm (excitation), 595/60 nm (emission) and 561 nm (bean splitter). […] GraphPad Prism or similar in-house software with the IC50 curve fitting using the four parameter logistic equation.

human CA-IV = target: T2, human CA-IV (Homo sapiens, UniProt P22748); assay: Carbonic Anhydrase-IV (CA-IV) Fluorescence Polarization Assay-IC50 Determination; format: binding; conditions: for inhibition at 0.2 µM: read-out: CA-IV: % Inh @ Min dose
T2 construct: made in house; host or cells: Escherichia coli BL21(DE3)
T2 sequence (P22748 19-284 limits assumed): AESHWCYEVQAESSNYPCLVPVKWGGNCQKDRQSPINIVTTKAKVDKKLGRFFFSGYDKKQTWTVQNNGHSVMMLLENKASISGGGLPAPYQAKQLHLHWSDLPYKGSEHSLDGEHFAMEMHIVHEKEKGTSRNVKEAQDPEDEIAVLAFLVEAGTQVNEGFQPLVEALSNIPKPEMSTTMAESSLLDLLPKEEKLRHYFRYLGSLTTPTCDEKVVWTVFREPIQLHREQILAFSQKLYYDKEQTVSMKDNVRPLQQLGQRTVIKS
Summary of the method: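 IC50 values come from a fluorescence polarization read-out. The CA-IV protein was zinc-supplemented during expression and purified by cation exchange then gel filtration, ending in 25 mM Tris-HCl pH 7.0 with 100 mM NaCl at 7.0 mg/mL.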

human CA-XII = target: T3, human CA-XII (Homo sapiens, UniProt O43570); assay: Carbonic Anhydrase-XII (CA-XII) Fluorimetric Assay-IC50 Determination; format: biochemical; conditions: for inhibition at 1 µM: read-out: % inh CAXII @ 1 uM; for IC50: read-out: CAXII IC 50
T3 construct: made in house; host or cells: Escherichia coli AD494 (DE3)
T3 sequence (O43570 30-289 limits assumed): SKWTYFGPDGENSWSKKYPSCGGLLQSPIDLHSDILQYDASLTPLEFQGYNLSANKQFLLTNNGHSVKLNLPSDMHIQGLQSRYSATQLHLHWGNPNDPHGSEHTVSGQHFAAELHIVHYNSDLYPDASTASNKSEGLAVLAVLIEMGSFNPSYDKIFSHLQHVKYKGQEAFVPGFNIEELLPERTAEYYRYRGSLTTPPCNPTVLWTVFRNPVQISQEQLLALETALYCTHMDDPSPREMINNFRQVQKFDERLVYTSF
Procedure: Carbonic Anhydrase-XII (CA-XII) Fluorimetric Assay-IC50 Determination
The cells were grown in LB (Biomyx) supplemented with 800 uM ZnCl2 at 37° C. until an O.D.600 of 0.7, at which point the cells were induced with 100 uM IPTG for 20 hours at 20° C. The frozen pellet was resuspended in 50 mM MES pH 6.0, 100 mM NaCl, 800 uM ZnCl2 and EDTA-Free protease inhibitors (Roche). The cells were lysed with a microfluidizer and the lysate was spun at 40,000 rpm for 45 minutes at 4° C. The soluble fraction was then put over a 100 ml SP-Sepharose High Performance (GE Healthcare) column and eluted with a 50 mM MES pH 6.0, 750 mM NaCl gradient.
Compounds were diluted in DMSO at the concentration of 1 mM, then 50 μM and transferred to a 96-well plate for further dilutions (1:3 dilution, 11 points) in duplicate. Final compound highest concentration in CA-XII Fluorimetric assay is 1 μM. Assays were conducted in a final volume of 100 μL in 50 mM Tris/HCl (pH 7.6), 100 mM Na2SO4 and 0.005% Tween-20 in a 96-well black assay plate. Fluorescein diacetate was used as the substrate. Enzyme inhibition was determined by pipetting 8 μL of human CA-XII (50 nM) into assay plate contained 2 μL of compound and 2 μL of substrate (10 μM) in 88 μL of assay buffer.

human CA-II [1] = target: T4, human CA-II (Homo sapiens, UniProt P00918); assay: Carbonic Anhydrase-II (CA-II) Fluorimetric Assay-IC50 Determination; format: biochemical; conditions: for inhibition at 0.1 µM: CA II Min dose 100 nM; for inhibition at 0.1 µM / inhibition at 0.0025 µM: read-out: CAII % Inh @ Min dose; for inhibition at 0.0025 µM: Min dose 2.5 nM
T4 construct: purchased Sigma-Aldrich C6165
Summary of the method: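 Enzyme activity is read fluorimetrically at 25° C (ex 488 nm / em 538 nm) as the rate at which human CA-II hydrolyses fluorescein diacetate. The buffer is Tris/HCl (50 mM, pH 7.6) with 100 mM Na2SO4 and 0.005% Tween-20. Inhibitors run in duplicate over 11 threefold dilutions, […]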

human CA-II [2] = target: T4, human CA-II; assay: Carbonic Anhydrase-II (CA-II) Fluorescence Polarization Tight Binding Assay-Kd Determination; conditions: read-out: CA-II Kd
Procedure: Assays were conducted in a final volume of 100 μL in 50 mM Tris/HCl (pH 7.6), 100 mM Na2SO4 and 0.005% Tween-20 in a 96-well black assay plate. […] The assay plate was
The Kd binding was calculated using GraphPad Prism and Morrison tight binding ligand equation.

| SMILES | inhibition at 1 µM (human CA-XII) [%] | IC50 (human CA-XII) [nM] | inhibition at 0.2 µM (human CA-IV; CA-IV Min dose 200 nM) [%] | IC50 (human CA-IV; read-out: CA-IV IC50) [nM] | inhibition at 0.1 µM (human CA-II [1]) [%] | Kd (human CA-II [2]) [nM] | also measured |
| --- | --- | --- | --- | --- | --- | --- | --- |
| C[C@@H]1CN(Cc2nc(Cc3ccccc3)n(-c3ccc(S(N)(=O)=O)cc3F)n2)C[C@H](C)O1 [Example F-1, 4-(5-Benzyl-3-{[2,6-cis-dimethylmorpholin-4-yl]methyl}-1H-1,2,4-triazol-1-yl)-3-fluorobenzenesulfonamide] |  |  |  |  |  |  | IC50 (human CA-IX): 26.1 nM |
| NS(=O)(=O)c1ccc(-n2nc(CN3CCOCC3)c3c2CCCC3)cc1 [II-1b, 4-[3-(morpholin-4-ylmethyl)-4,5,6,7-tetrahydro-1H-indazol-1-yl]benzenesulfonamide] | 89 | 119 |  |  |  |  | IC50 (human CA-IV; read-out: IC50_CAIV): ≥ 5000 nM |
| NS(=O)(=O)c1ccc(-n2nc(C(=O)O)nc2Cc2ccccc2)cc1 [a-5, 1-[4-(Aminosulfonyl)phenyl]-5-benzyl-1H-1,2,4-triazole-3-carboxylic acid] | 99 | 25.8 |  |  |  |  |  |
| CCOC(=O)c1cc(C)n(-c2ccc(S(N)(=O)=O)cc2)n1 [GG-1, Ethyl 1-[4-(Aminosulfonyl)phenyl]-5-methyl-1H-pyrazole-3-carboxylate] | 51 | 896 |  |  |  |  | IC50 (human CA-IV; read-out: IC50_CAIV): ≥ 5000 nM |
| CCCCCN(C)C(=O)c1nc(Cc2ccccc2)n(-c2ccc(S(N)(=O)=O)cc2)n1 [Example R-1, 1-[4-(aminosulfonyl)phenyl]-5-benzyl-N-methyl-N-pentyl-1H-124-triazole-3-carboxamide] |  |  | 68.6 | 86 | 100 | 0.56 |  |
| CCOC(=O)c1nc(Cc2ccccc2)n(-c2ccc(S(N)(=O)=O)cc2)n1 [a-4, Ethyl 1-[4-(Aminosulfonyl)phenyl]-5-benzyl-1H-1,2,4-triazole-3-carboxylate] | 95 | 73.8 |  |  |  |  |  |
| NS(=O)(=O)c1ccc(-c2nc(C(F)(F)F)cn2Cc2cccc(OC(F)F)c2)cc1 [JJJ-4, 4-{1-[3-(difluoromethoxy)benzyl]-4-(trifluoromethyl)-1H-imidazol-2-yl]benzenesulfonamide] |  |  |  | 440 |  | 1.39 | inhibition at 0.2 µM (human CA-IV; Min dose 200 nM): 29%; inhibition at 0.0025 µM (human CA-II [1]): 39% |
| Cc1cc(C(=O)N(C)C)nn1-c1ccc(S(N)(=O)=O)cn1 [MM-1b, 1-[5-(aminosulfonyl)pyridin-2-yl]-N,N,5-trimethyl-1H-pyrazole-3-carboxamide] | 96 | 66.5 |  |  |  |  | IC50 (human CA-IV; read-out: IC50_CAIV): 2390 nM |
| CN(C)[C@H]1CCN(C(=O)c2nc(Cc3ccccc3)n(-c3ccc(S(N)(=O)=O)cc3)n2)C1 [Example R-23, 4-(5-benzyl-3-{[(3S)-3-(dimethylamino)pyrrolidin-1-yl]carbonyl}-1H-124-triazol-1-yl)benzenesulfonamide] |  |  | 40.3 | 376 | 99 | 0.294 |  |
| CN(CC1CC1)C(=O)c1nc(Cc2ccccc2)n(-c2ccc(S(N)(=O)=O)cc2)n1 [Example R-20, 1-[4-(aminosulfonyl)phenyl]-5-benzyl-N-(cyclopropylmethyl)-N-methyl-1H-124-triazole-3-carboxamide] |  |  | 65.2 | 355 | 100 | 0.805 |  |
| Cc1nc(C(=O)O)nn1-c1ncc(S(N)(=O)=O)cn1 [Example I-5b, 1-[5-(aminosulfonyl)pyrimidin-2-yl]-5-methyl-1H-1,2,4-triazole-3-carboxylic acid] | 46 | > 1000 |  |  |  |  | IC50 (human CA-IV; read-out: IC50_CAIV): > 1000 nM; IC50 (human CA-II [1]; read-out: IC50—CAII): 57.9 nM |
| NS(=O)(=O)c1ccc(-n2nc(C(=O)NCc3n[nH]c4c3CCC4)nc2Cc2ccccc2)cc1 [Example R-11, 1-[4-(aminosulfonyl)phenyl]-5-benzyl-N-(1456-tetrahydrocyclopenta[c]pyrazol-3-ylmethyl)-1H-124-triazole-3-carboxamide] |  |  | 64.7 | 202 | 99 | 0.091 |  |
| NS(=O)(=O)c1ccc(-n2nc(C(=O)NCC3CCCCC3)nc2Cc2ccccc2)cc1 [Example R-17, 1-[4-(aminosulfonyl)phenyl]-5-benzyl-N-(cyclohexylmethyl)-1H-124-triazole-3-carboxamide] |  |  | 56.9 | 242 | 101 | 0.067 |  |
| N#CCCN(C(=O)c1nc(Cc2ccccc2)n(-c2ccc(S(N)(=O)=O)cc2)n1)C1CC1 [Example R-13, 1-[4-(aminosulfonyl)phenyl]-5-benzyl-N-(2-cyanoethyl)-N-cyclopropyl-1H-124-triazole-3-carboxamide] |  |  | 63.6 | 208 | 100 | 0.644 |  |
| CCCCN(C)C(=O)c1nc(Cc2ccccc2)n(-c2ccc(S(N)(=O)=O)cc2)n1 [Example R-3, 1-[4-(aminosulfonyl)phenyl]-5-benzyl-N-butyl-N-methyl-1H-124-triazole-3-carboxamide] |  |  | 66.4 | 88 | 101 | 0.451 |  |
| CCOC(=O)c1nn(-c2ccc(S(N)(=O)=O)cc2)c2c1CNCC2 [EE-1g, ethyl 1-[4-(aminosulfonyl)phenyl]-4,5,6,7-tetrahydro-1H-pyrazolo[4,3-c]pyridine-3-carboxylate] | 31 | > 1000 |  |  |  |  |  |
| Cc1ccccc1Cn1cc(C(F)(F)F)nc1-c1ccc(S(N)(=O)=O)cc1 [JJJ-3, 4-[1-(2-methylbenzyl)-4-(trifluoromethyl)-1H-imidazol-2-yl]benzenesulfonamide] |  |  |  | 346 |  | 0.369 | inhibition at 0.2 µM (human CA-IV; Min dose 200 nM): 36%; inhibition at 0.0025 µM (human CA-II [1]): 47% |
| COc1cccc(CNC(=O)c2nc(Cc3ccccc3)n(-c3ccc(S(N)(=O)=O)cc3)n2)c1 [Example R-22, 1-[4-(aminosulfonyl)phenyl]-5-benzyl-N-(3-methoxybenzyl)-1H-124-triazole-3-carboxamide] |  |  | 53.6 | 361 | 100 | 0.091 |  |
| Cc1cc(C(=O)N2CCN(C)CC2)nn1-c1ccc(S(N)(=O)=O)cn1 [MM-1c, 6-{5-methyl-3-[(4-methylpiperazin-1-yl)carbonyl]-1H-pyrazol-1-yl}pyridine-3-sulfonamide] | 86 | 166 |  |  |  |  | IC50 (human CA-IV; read-out: IC50_CAIV): 2950 nM |
